Laboratory results taken from patent publication US20140371280A1, “Method of treating diabetic peripheral neuropathy through amendment of pre-neuronal diabetic coagulative micro-angiopathy and neuronal deficiency of mitochondrial ATP production, and through induction of neuronal regeneration” (priority 2013, published 2014).

Assays:
arterioles = details: yes/no; cited from earlier work
platelet aggregation = details: yes/no; cited from earlier work
neoangiogenesis = details: yes/no; cited from earlier work
insulin sensitization = details: yes/no; cited from earlier work
[1] = test system: diabetic peripheral neuropathy; test: Clinical case: diabetic person with DPN of stocking-glove pattern and maceration in the big toe; type: in vivo, human patient
Text: An elderly patient of DPN with advanced DM of hyperglycemia, hypoinsulinemia, and HgbA1C elevated to 7.5%, presented themself with a typical stocking-glove pattern of DPN accompanied by maceration in the left big toe. A bitherapy of SAG+ALC halted their DPN.
The present DPN-relieving invention includes mainly four parts: (1) rescue with SAG-ALC of the tormenting DPN distress of pain, cold sensation, and maceration in the stocking-glove pattern; (2) expansion of the SAG-ALC regimen to include ALA; (3) extended use of the SAG+ALC+ALA principle for prevention of recurrence and maintenance; and (4) an extended use of the principle for induction of neuronal regeneration with SAG+ALC+ALA. • (1) Prompt halt of DPN symptoms with the application of SAG in order to amend the pre-neuronal coagulative microangiopathy and with ALC to amend the neuronal mitochondrial fatty acid transport across the carnithine window so as to help generating ATP through β-oxidation of fatty acids: the SAG+ALC principle. • A person with a 10-year history of DM developed signs and symptoms of DPN of the stocking-glove pattern and maceration in the big toe in the depth. […] The dosage could be 100 to 200 mg three times a day unless contraindicated by hemorrhagic diathesis. They were relieved of the distress but limitedly for 2-3 hours of post-dose. The patient was greatly depressed to learn that neuronal loss that could have already taken place might not be recovered with the SAG (Srinivasan et al. 2000)). • ALC was added at 1500 mg per day. The dosage range could be 500 to 4500 mg per day in the hope of eventual induction of neuronal regeneration (Tagliatela et al. 1991; Ishii et al. 2000). […] Thus, the SAG and ALC appeared to work synergistically. Within 2 months of this combination treatment, the soft swelling due to maceration in the depth of the big toe resolved (FIG. 1e). This ALC-SAG combination therapy may be continued as long as one's DPN status persists. […]

Q: With `CC/C=C\C/C=C\C/C=C\C/C=C\C/C=C\CCCC(=O)OCC` [Epadel, ethyl icosapentate] as the compound, how does the Arteriolar dilation (arterioles) read?
A: The Arteriolar dilation was “Yes”.

Q: And the “Anti-platelet Aggregation” value (platelet aggregation)?
A: Its value is “Yes”.

Q: And the Neo-angiogenesis (neoangiogenesis)?
A: The Neo-angiogenesis was “No”.

Q: What about the Insulin-sensitization (insulin sensitization) of the same compound?
A: Its Insulin-sensitization is “No”.

Q: Which Arteriolar dilation (arterioles) does the source give for `CC1CNc2c(cccc2S(=O)(=O)N[C@@H](CCCNC(=N)N)C(=O)N2CC[C@@H](C)C[C@@H]2C(=O)O)C1` (some centres unmarked) [Novastan, argatroban hydrate] here?
A: The Arteriolar dilation was “Yes”.

Q: What about the “Anti-platelet Aggregation” value (platelet aggregation) of the same compound?
A: Its value is “Yes”.

Q: What about the Neo-angiogenesis (neoangiogenesis) of the same compound?
A: The Neo-angiogenesis was “No”.

Q: What about the Insulin-sensitization (insulin sensitization) of the same compound?
A: The Insulin-sensitization was “No”.

Q: What does the source list for `O=C1CCc2cc(OCCCCc3nnnn3C3CCCCC3)ccc2N1` [Pletaal, cilostazol]?
A: Arteriolar dilation (arterioles): Yes; Anti-platelet Aggregation (platelet aggregation): Yes; Neo-angiogenesis (neoangiogenesis): No; Insulin-sensitization (insulin sensitization): No

Q: For `COc1cccc(CCc2ccccc2OCC(CN(C)C)OC(=O)CCC(=O)O)c1` (centres unmarked) [SAG, sarpogrelate], which Arteriolar dilation (arterioles) is on record?
A: Its Arteriolar dilation is “Yes”.

Q: What about the “Anti-platelet Aggregation” value (platelet aggregation) of the same compound?
A: The value was “Yes”.

Q: And the Neo-angiogenesis (neoangiogenesis)?
A: Its Neo-angiogenesis is “Yes”.

Q: And the Insulin-sensitization (insulin sensitization)?
A: The Insulin-sensitization was “Yes”.

Q: And the “Duration of relief of distress post-dose” value ([1]; SAG 600 mg per day, monotherapy)?
A: Its value is 2 to 3 h.

Q: What about the “Duration of halt of DPN's pain and cold intolerance per dose” value ([1]; each 200 mg dose of SAG, monotherapy) of the same compound?
A: Its value is 3 to 4 h.

Q: And the “Effect on DPN symptoms (pain, cold sensation, numbness)” value ([1]; patient, SAG 600 mg, ALC 1500 mg, ALA 600 mg per day, EPR 100 mg three times a day, as combined)?
A: The value was “appreciably but passingly alleviated”.

Q: Which Arteriolar dilation (arterioles) does the source give for Heparin here?
A: Its Arteriolar dilation is “No”.

Q: And the “Anti-platelet Aggregation” value (platelet aggregation)?
A: Its value is “Yes”.

Q: What about the Neo-angiogenesis (neoangiogenesis) of the same compound?
A: Its Neo-angiogenesis is “No”.

Q: What about the Insulin-sensitization (insulin sensitization) of the same compound?
A: The Insulin-sensitization was “No”.
